According to US8829027B2, “Urea derivatives of substituted nortropanes, medicaments containing such compounds and their use” (Boehringer Ingelheim International GmbH, priority 2008, dated 2014):

target: T1, 11β-HSD1 (Homo sapiens, UniProt P28845); test: In vitro inhibition of 11β-HSD1, HTRF detection of cortisol generated from cortisone by human liver microsomes; format: biochemical; settings: compound concentration 1 μM, 100% indicates no inhibition, zero or below zero indicates complete inhibition
T1 construct: detecting cortisol generated from cortisterone by human liver microsomes; from tissue; host or cells: human liver microsomes
T1 sequence (P28845 whole entry): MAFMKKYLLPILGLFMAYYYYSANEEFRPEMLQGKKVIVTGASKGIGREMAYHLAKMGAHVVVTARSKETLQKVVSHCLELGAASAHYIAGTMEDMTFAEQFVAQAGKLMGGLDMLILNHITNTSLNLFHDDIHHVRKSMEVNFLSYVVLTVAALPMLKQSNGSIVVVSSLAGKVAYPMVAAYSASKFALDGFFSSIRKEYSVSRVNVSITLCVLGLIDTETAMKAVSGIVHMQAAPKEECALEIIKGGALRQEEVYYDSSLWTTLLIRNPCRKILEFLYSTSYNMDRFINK
Procedure: Briefly, compounds are incubated for 1 hour at 37° C. in Tris buffer (20 mM tris, 5 mM EDTA, pH 6.0) containing NADPH (200 μM) and cortisone (80 nM). Cortisol generated in the reaction is then detected with a competitive immunoassay, involving two HTRF conjugates: cortisol linked to XL665 and anti-cortisol antibody labeled with Europium cryptate. The incubation period for detection reaction is typically 2 hours. The amount of cortisol is determined by reading the time-resolved fluorescence of the wells (Ex 320/75 nm; Em 615/8.5 nm and 665/7.5 nm). The ratio of the two emission signals is then calculated (Em665*10000/Em615). […] Each assay also contains a calibration curve with cortisol to transform the fluorescent data into cortisol concentrations. Percent inhibition (% CTL) of each compound is determined relative to the carbenoxolone signal and IC50 curves are generated.
The % CTL values of some example compounds at a concentration of 1 μM are provided in the following Table 2 wherein 100% indicates no inhibition and a value of zero or below zero indicates complete inhibition. The measurement of % CTL is described hereinbefore.

| SMILES | 11β-HSD1 remaining activity (% of control) [% CTL] |
| --- | --- |
| O=C(N1CCC(O)CC1)N1[C@@H]2CC[C@H]1C[C@@H](c1ccc(F)cc1)C2 [Example 5, endo-[3-(4-Fluoro-phenyl)-8-aza-bicyclo[3.2.1]oct-8-yl]-(4-hydroxy-piperidin-1-yl)-methanone] | −46 |
| CC(=O)NC1CCN(C(=O)N2[C@@H]3CC[C@H]2C[C@@H](c2ccc(F)cc2)C3)CC1 [Example 4, endo-N-{1-[3-(4-Fluoro-phenyl)-8-aza-bicyclo[3.2.1]octane-8-carbonyl]-piperidin-4-yl}-acetamide] | 46 |
| CC(C)(O)C1CCN(C(=O)N2[C@@H]3CC[C@H]2C[C@@H](c2ccc(F)cc2)C3)CC1 [Example 22, endo-[3-(4-Fluoro-phenyl)-8-aza-bicyclo[3.2.1]oct-8-yl]-[4-(1-hydroxy-1-methyl-ethyl)-piperidin-1-yl]-methanone] | −18 |
| N#CC1CCN(C(=O)N2[C@@H]3CC[C@H]2C[C@@H](c2ccc(F)cc2)C3)CC1 [Example 12, endo-1-[3-(4-Fluoro-phenyl)-8-aza-bicyclo[3.2.1]octane-8-carbonyl]-piperidine-4-carbonitrile] | −27 |
| COC1CCN(C(=O)N2[C@@H]3CC[C@H]2C[C@@H](c2ccc(F)cc2)C3)CC1 [Example 13, endo-[3-(4-Fluoro-phenyl)-8-aza-bicyclo[3.2.1]oct-8-yl]-(4-methoxy-piperidin-1-yl)-methanone] | −25 |
| O=C(O)C1CCN(C(=O)N2[C@@H]3CC[C@H]2C[C@@H](c2ccc(F)cc2)C3)CC1 [Example 11, endo-1-[3-(4-Fluoro-phenyl)-8-aza-bicyclo[3.2.1]octane-8-carbonyl]-piperidine-4-carboxylic acid] | 4 |
| CC1(O)CCN(C(=O)N2[C@@H]3CC[C@H]2C[C@@H](c2ccc(F)cc2)C3)CC1 [Example 16, endo-[3-(4-Fluoro-phenyl)-8-aza-bicyclo[3.2.1]oct-8-yl]-(4-hydroxy-4-methyl-piperidin-1-yl)-methanone] | −23 |
| O=C(N1CCCC2(CCNC2=O)C1)N1[C@@H]2CC[C@H]1C[C@@H](c1ccc(F)cc1)C2 (stereo partly drawn) [Example 19, endo-7-[3-(4-Fluoro-phenyl)-8-aza-bicyclo[3.2.1]octane-8-carbonyl]-2,7-diaza-spiro[4.5]decan-1-one] | 34 |
| O=C(N1CCc2nc[nH]c2C1)N1[C@@H]2CC[C@H]1C[C@@H](c1ccc(F)cc1)C2 [Example 6, endo-[3-(4-Fluoro-phenyl)-8-aza-bicyclo[3.2.1]oct-8-yl]-(3,4,6,7-tetrahydro-imidazo[4,5-c]pyridin-5-yl)-methanone] | 65 |
| O=C(N1CCc2sccc2C1)N1[C@@H]2CC[C@H]1C[C@@H](c1ccc(F)cc1)C2 [Example 7, endo-(6,7-Dihydro-4H-thieno[3,2-c]pyridin-5-yl)-[3-(4-fluoro-phenyl)-8-aza-bicyclo[3.2.1]oct-8-yl]-methanone] | −57 |
| O=C(N1[C@@H]2CC[C@H]1C[C@@H](O)C2)N1[C@@H]2CC[C@H]1C[C@@H](c1ccc(F)cc1)C2 [Example 8, [endo-3-(4-Fluoro-phenyl)-8-aza-bicyclo[3.2.1]oct-8-yl]-(endo-3-hydroxy-8-aza-bicyclo[3.2.1]oct-8-yl)-methanone] | −59 |
| NC(=O)C1CCN(C(=O)N2[C@@H]3CC[C@H]2C[C@@H](c2ccc(F)cc2)C3)CC1 [Example 9, endo-1-[3-(4-Fluoro-phenyl)-8-aza-bicyclo[3.2.1]octane-8-carbonyl]-piperidine-4-carboxylic acid amide] | −49 |
| O=C(N1CCOCC1)N1[C@@H]2CC[C@H]1C[C@@H](c1ccc(F)cc1)C2 [Example 3, endo-[3-(4-Fluoro-phenyl)-8-aza-bicyclo[3.2.1]oct-8-yl]-morpholin-4-yl-methanone] | −29 |
| O=C(N1CCCC2(CCCNC2=O)C1)N1[C@@H]2CC[C@H]1C[C@@H](c1ccc(F)cc1)C2 (stereo partly drawn) [Example 18, endo-8-[3-(4-Fluoro-phenyl)-8-aza-bicyclo[3.2.1]octane-8-carbonyl]-2,8-diaza-spiro[5.5]undecan-1-one] | 62 |
| O=C(N1CCC(CO)CC1)N1[C@@H]2CC[C@H]1C[C@@H](c1ccc(F)cc1)C2 [Example 21, endo-[3-(4-Fluoro-phenyl)-8-aza-bicyclo[3.2.1]oct-8-yl]-(4-hydroxymethyl-piperidin-1-yl)-methanone] | −20 |
| O=C(N1CCCC1)N1[C@@H]2CC[C@H]1C[C@@H](c1ccc(F)cc1)C2 [Example 2, endo-[3-(4-Fluoro-phenyl)-8-aza-bicyclo[3.2.1]oct-8-yl]-pyrrolidin-1-yl-methanone] | −3 |
| O=C(N1CCCCC1)N1[C@@H]2CC[C@H]1C[C@@H](c1ccc(F)cc1)C2 [Example 1, endo-[3-(4-Fluoro-phenyl)-8-aza-bicyclo[3.2.1]oct-8-yl]-piperidin-1-yl-methanone] | −49 |
| O=C(N1C2CCC1CC(O)(C(F)(F)F)C2)N1[C@@H]2CC[C@H]1C[C@@H](c1ccc(F)cc1)C2 (stereo partly drawn) [Example 17, endo-[3-(4-Fluoro-phenyl)-8-aza-bicyclo[3.2.1]oct-8-yl]-(3-hydroxy-3-trifluoromethyl-8-aza-bicyclo[3.2.1]oct-8-yl)-methanone] | −11 |
| O=C(N1CCC(O)(C(F)(F)F)CC1)N1[C@@H]2CC[C@H]1C[C@@H](c1ccc(F)cc1)C2 [Example 14, endo-[3-(4-Fluoro-phenyl)-8-aza-bicyclo[3.2.1]oct-8-yl]-(4-hydroxy-4-trifluoromethyl-piperidin-1-yl)-methanone] | −30 |
| O=C(N1CCCC(CO)C1)N1[C@@H]2CC[C@H]1C[C@@H](c1ccc(F)cc1)C2 (stereo partly drawn) [Example 20, endo-[3-(4-Fluoro-phenyl)-8-aza-bicyclo[3.2.1]oct-8-yl]-(3-hydroxymethyl-piperidin-1-yl)-methanone] | −17 |
| COC(=O)C1CCN(C(=O)N2[C@@H]3CC[C@H]2C[C@@H](c2ccc(F)cc2)C3)CC1 [Example 15, endo-1-[3-(4-Fluoro-phenyl)-8-aza-bicyclo[3.2.1]octane-8-carbonyl]-piperidine-4-carboxylic acid methyl ester] | 20 |
